The supplement of paper PMC4862054
Values joined by “and” are separate entries in the source; they are usually repeats but may differ in a detail not shown here. Equal entries are not always repeated.

What was measured:
Details in all cases: incubation time: 72 h
HCC1937 = assay: normalised viability (% of control), CellTiter-Blue; higher = more viable cells (about 100 = DMSO control)
Description: (§1)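 DSRT, CellTiter-Blue viability, 72 h incubation. Signal is normalised to DMSO and benzethonium chloride controls. Value is the normalised response at dose 3.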

MDA-MB-453 [1] = assay: as above
Description: as §1

MDA-MB-231 = assay: as above
Description: as §1

BT-474 = assay: as above
Description: as §1

CAL-85-1 = assay: as above
Description: as §1

DU-4475 [2] = assay: as above
Description: as §1

HCC1599 [3] = assay: as above
Description: as §1

SK-BR-3 [4] = assay: as above
Description: as §1

MFM-223 = assay: as above
Description: as §1

BT-549 = assay: as above
Description: as §1

Hs578T = assay: as above
Description: as §1

CAL-51 = assay: as above
Description: as §1

MDA-MB-436 [5] = assay: as above
Description: as §1

MDA-MB-468 [6] = assay: as above
Description: as §1

HCC1143 [7] = assay: as above
Description: as §1

HDQ-P1 [8] = assay: as above
Description: as §1

CAL-148 = assay: as above
Description: as §1

CAL-120 [9] = assay: as above
Description: as §1

MDA-MB-453 [10] = assay: drug sensitivity score (DSS), CellTiter-Blue viability (DSS (AUC-based score)); higher = stronger viability inhibition; extreme values may be limits of the assay
Description: (§2)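 DSRT with the CellTiter-Blue (resazurin reduction) viability readout, fluorescence 560/590 nm, 72 h incubation. Plates were normalised to DMSO and benzethonium chloride controls. DSS is computed from the area under the fitted dose-response curve (5 or 9 concentrations).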

HCC1599 [11] = assay: as above
Description: as §2

SK-BR-3 [12] = assay: as above
Description: as §2

MDA-MB-436 [13] = assay: as above
Description: as §2

HCC1143 [14] = assay: as above
Description: as §2

CAL-120 [15] = assay: as above
Description: as §2

DU-4475 [16] = assay: drug sensitivity score (DSS), CellTiter-Glo (DSS (AUC-based score)); higher = stronger drug effect (viability inhibition or cytotoxicity); extreme values may be limits of the assay
Outline: (§3)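 The area under the fitted dose-response curve was used to calculate the drug sensitivity score. Cells from breast cancer lines were incubated for 72 h in 384-well plates with compound at 5 concentrations spaced 10-fold over a 10,000-fold range specific to each compound. Plates were read for CellTox Green and then CellTiter-Glo, and normalised to 0.1 % DMSO and a positive kill control.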

MDA-MB-468 [17] = assay: as above
Outline: as §3

HDQ-P1 [18] = assay: as above
Outline: as §3

Compound	normalised viability (HCC1937; 100 nM)	normalised viability (MDA-MB-453 [1]; 10 nM)	normalised viability (MDA-MB-231; 100 nM)	normalised viability (BT-474; 100 nM)	normalised viability (CAL-85-1; 10 nM)	normalised viability (DU-4475 [2]; 10 nM) [%]	normalised viability (HCC1599 [3]; 100 nM)	normalised viability (SK-BR-3 [4]; 100 nM)	normalised viability (MFM-223; 100 nM)	normalised viability (BT-549; 100 nM)	normalised viability (Hs578T; 100 nM)	drug sensitivity score (MDA-MB-453 [10])	drug sensitivity score (HCC1599 [11])	drug sensitivity score (SK-BR-3 [12])	drug sensitivity score (MDA-MB-436 [13])	drug sensitivity score (HCC1143 [14])	drug sensitivity score (CAL-120 [15])	drug sensitivity score (DU-4475 [16])	drug sensitivity score (MDA-MB-468 [17])	drug sensitivity score (HDQ-P1 [18])	also measured
CC(C)C[C@H](NC(=O)[C@@H](COC(C)(C)C)NC(=O)[C@H](Cc1ccc(O)cc1)NC(=O)[C@H](CO)NC(=O)[C@H](Cc1c[nH]c2ccccc12)NC(=O)[C@H](Cc1cnc[nH]1)NC(=O)[C@@H]1CCC(=O)N1)C(=O)N[C@@H](CCCNC(=N)N)C(=O)N1CCC[C@H]1C(=O)NNC(N)=O [Goserelin]	104%	102%	91.8%	115%	102%	96.2	94.4%	110%	91.3%	102%	113%	0	0	0	0	0	0	0	0	0	normalised viability (CAL-51; 10 nM): 113%; normalised viability (MDA-MB-436 [5]; 100 nM): 102%; normalised viability (MDA-MB-468 [6]; 100 nM): 101%; normalised viability (HCC1143 [7]; 100 nM): 87.3%; normalised viability (HDQ-P1 [8]; 10 nM): 117%; normalised viability (CAL-148; 10 nM): 101%; normalised viability (CAL-120 [9]; 100 nM): 107%
O=C(CCCCCCC(=O)Nc1ccccc1)NO [Vorinostat]	98.6% and 84.2%	115% and 97.7%	97.9% and 86.1%	87.5% and 93.6%	109% and 96.3%	109	101% and 111%	59.4% and 81.4%	103% and 97.1%	106% and 90%	74.4% and 83.6%	11.4 and 11.6	6.85 and 2.71	14.2 and 12.8	8.55 and 3.68	4.79 and 6.75	9.7 and 7.55	5.43	8.49	2.32	normalised viability (CAL-51; 10 nM): 107% and 93.5%; normalised viability (MDA-MB-436 [5]; 100 nM): 107% and 95.4%; normalised viability (MDA-MB-468 [6]; 100 nM): 104% and 97.3%; normalised viability (HCC1143 [7]; 100 nM): 94.1% and 114%; normalised viability (HDQ-P1 [8]; 10 nM): 113% and 89.2%; normalised viability (CAL-148; 10 nM): 88.3% and 92.3%; normalised viability (CAL-120 [9]; 100 nM): 79.2% and 93.3%
CNC(=O)c1ccccc1Sc1ccc2c(/C=C/c3ccccn3)n[nH]c2c1 [Axitinib]	118%	104%	102%	114%	96%	113	89.7%	58.8%	82.6%	113%	73.2%	7.1	0	0	13.7	2.06	0	0	4.94	1.23	normalised viability (CAL-51; 10 nM): 107%; normalised viability (MDA-MB-436 [5]; 100 nM): 70%; normalised viability (MDA-MB-468 [6]; 100 nM): 101%; normalised viability (HCC1143 [7]; 100 nM): 101%; normalised viability (HDQ-P1 [8]; 10 nM): 100%; normalised viability (CAL-148; 10 nM): 98%; normalised viability (CAL-120 [9]; 100 nM): 96.8%
C/C(=C\c1csc(C)n1)[C@@H]1C[C@@H]2O[C@]2(C)CCC[C@H](C)[C@H](O)[C@@H](C)C(=O)C(C)(C)[C@@H](O)CC(=O)N1 [Ixabepilone]												3.24	1.1	3.73	4.17	1.78	0.647	0	13.9	0	normalised viability (HCC1937; 10 nM): 95.2%; normalised viability (MDA-MB-453 [1]; 1 nM): 89.6%; normalised viability (MDA-MB-231; 10 nM): 98%; normalised viability (BT-474; 10 nM): 96.6%; normalised viability (CAL-85-1; 1 nM): 90.1%; normalised viability (DU-4475 [2]; 1 nM): 94.3%; normalised viability (HCC1599 [3]; 10 nM): 94.9%; normalised viability (SK-BR-3 [4]; 10 nM): 80.7%; normalised viability (MFM-223; 10 nM): 73.3%; normalised viability (BT-549; 10 nM): 95.2%; normalised viability (Hs578T; 10 nM): 81.2%; normalised viability (CAL-51; 1 nM): 104%; normalised viability (MDA-MB-436 [5]; 10 nM): 105%; normalised viability (MDA-MB-468 [6]; 10 nM): 91.1%; normalised viability (HCC1143 [7]; 10 nM): 77%; normalised viability (HDQ-P1 [8]; 1 nM): 82.7%; normalised viability (CAL-148; 1 nM): 90.5%; normalised viability (CAL-120 [9]; 10 nM): 76.4%
